“And” between values parts separate entries of the source, which are not always exact repeats. Equal entries are not always repeated. The source made the active and inactive calls.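 The calls were made as follows: active = compounds giving half or more protection of infected cells from virus-caused growth loss, again on retest; inactive = the rest.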
System: CEM cells HIV-1 protection, formazan growth assay
Experiment: NCI AIDS Antiviral Assay
Details: for IC50: measured here: growth of uninfected CEM cells
Procedure, shortened: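 Protection of CEM cells against HIV-1 was scored from cell growth (soluble formazan) across five concentrations, with parallel uninfected cells. Lack of protection may reflect toxicity.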

| SMILES | EC50 [µM] | IC50 | outcome |
| --- | --- | --- | --- |
| OCC1(CO)CC2C3C=CC(C3)C2C1 (stereo not drawn) | > 229 | > 229 µM | – |
| O=C1CC2O[C@H](c3ccccc3)OC2CO1 (stereo partly drawn) | > 200 | 93.3 µM | – |
| COc1ccc2c(c1)C(=O)Cc1ccccc1CC2 | > 39.8 | > 39.8 µM | – |
| O=C1CCCCCCCCCCCC(=O)OCCO1 | > 132 | > 132 µM | – |
| OCC1CC(F)C(n2cnc3c(NOCc4ccccc4)ncnc32)O1 (stereo not drawn) | > 100 | > 100 µM | – |
| CC1=NNC(N)=N/C1=C\C(Sc1ccc(Cl)cc1)c1ccc(Cl)cc1Cl (stereo not drawn) | > 112 | 18.6 µM | – |
| COC(=O)/C(C#N)=C1\N=NNN1c1ccc(OC)cc1 | – | – | inactive |
| COC(=O)c1cc(/C=C2\Cc3cc4c(cc3C2=O)CCC4)cc2c1CCC2 | > 200 | > 200 µM | – |
| C/C(CC(=O)Nc1ccc(C)cc1)=N\NC(N)=S | > 490 | 245 µM | – |
| CC(c1ccc2c(c1)CCC1C2CC2OC23CC=CC(=O)[C@]13C)C1C[C@]2(C)O[C@]2(C)[C@H](O)O1 (stereo partly drawn) | > 200 | 45.7 µM | – |
| CCOc1nc(-c2ccccc2)cc(-c2ccc(N3CCOCC3)cc2)c1C#N | > 200 | 112 µM | – |
| CC1(C)C(=O)/C=C\C(=O)C(C)(C)C(=O)/C=C\C(=O)C(C)(C)C(=O)/C=C\C(=O)C(C)(C)C(=O)/C=C\C1=O | – | – | inactive |
| C[C@]1(O)CC(=O)c2c(c(-c3ccc4cc5c(c(O)c4c3O)C(=O)C[C@@](C)(O)C5)c3cccc(O)c3c2O)C1 | > 200 | 1.32 µM | – |
| CC1(C)OC2CC3COC(=O)C3CC2O1 (stereo not drawn) | > 1170 | > 1170 µM | – |
| O=C1C(Cl)N(c2c(Cl)cccc2Cl)C1c1c[nH]c2ccccc12 (stereo not drawn) | > 257 | 115 µM | – |
| CO[C@H]1[C@H](O)[C@H](O[C@H]2CC[C@@]3(C)[C@H](CC[C@@H]4[C@@H]3CC[C@]3(C)[C@@H](C5=CC(=O)OC5)CC[C@]43O)C2)O[C@@H](C)[C@@H]1O | – | – | inactive |
| CCOC(=O)c1cc(C2CCN(CC(C)CC)C2=S)c(-c2cc(C)no2)[nH]1 (stereo not drawn) | > 200 | > 200 µM | – |
| COc1cc2c(ccc3c4cc(OC)c(OC)cc4c[n+](C)c23)cc1O | > 324 | 1.48 µM | – |
| CC(=O)OC/C=C(/C)C[P+](c1ccccc1)(c1ccccc1)c1ccccc1 | > 200 | 0.955 µM | – |
| COC(=O)C1CCC[C@H]2C(CO)=C(C)C(=O)[C@@H]12 (stereo partly drawn) | 182 | > 200 µM | – |
| OC12c3ccccc3C1CCCCC2N1CCCC1 (stereo not drawn) | > 200 | > 200 µM | – |
| O=C(CCN(CCO)CCO)Nc1ccc2c(c1)C(=O)c1ccc(NC(=O)CCN(CCO)CCO)cc1C2=O | > 200 | 1.66 µM | – |
| CCOC(=O)Cc1ccc(-c2cn3c(n2)sc2ccccc23)cc1 | > 200 | > 200 µM | – |

| SMILES | EC50 [µM] | IC50 | outcome |
| --- | --- | --- | --- |
| CCCCC1(c2sccc2C(O)(C(F)F)C(F)(F)F)NC(C)(C)CO1 (stereo not drawn) | > 200 | 126 µM | – |
| CCN(CC)CC(=O)NC1c2ccc(Cl)cc2Oc2c(C)cccc21 (stereo not drawn) | > 72.4 | 58.9 µM | – |
| CN(C)c1ccccc1CC(c1c[nH]c2ccccc12)c1c[nH]c2ccccc12 | > 19.1 | > 19.1 µM | – |
| COc1ccc(Nc2nc3ccc(C(F)(F)F)cc3nc2C(=O)O)cc1 | > 200 | 20.4 µM | – |
| CCCCCCCCCCC/C=C(/C(=O)CCCO[Si](C)(C)C(C)(C)C)C(=O)OC | > 200 | > 200 µM | – |
| c1cc2c(cnc3cscc32)s1 | – | – | inactive |
| CCSc1c2cc(OC)ccc2nc2ccc(OC)cc12 | > 200 | 6.92 µM | – |
| O=C(CC1(O)C(=O)Nc2c(Cl)cccc21)c1ccccc1 (stereo not drawn) | > 832 | 158 µM | – |
| CCN(CC)/[N+]([O-])=N/OCOC(C)=O | > 200 | 102 µM | – |
| Cc1cc(Cl)ccc1NC(=O)/C(Cc1nc2ccc(C(=O)c3ccccc3)cc2[nH]c1=O)=N/NC(=O)c1ccncc1 | > 224 | 75.9 µM | – |
| C=C(C)C(OC(C)=O)C(OCC)c1c(OC)ccc2ccc(=O)oc12 (stereo not drawn) | > 50.1 | > 50.1 µM | – |
| COc1cc(C(=O)c2cocc2C(=O)c2ccc3c(c2)OCO3)cc(OC)c1OC | – | – | inactive |
| N#C/C(=C\c1c(O)ccc2ccccc12)c1ccc([N+](=O)[O-])cc1 | > 100 | > 100 µM | – |
| O=c1c2cccnc2ncn1CCN1CCCC1 | – | – | inactive |
| CC#CCOC(=O)c1ccccc1OC(C)=O.[C-]#[O+].[C-]#[O+].[C-]#[O+].[C-]#[O+].[C-]#[O+].[C-]#[O+].[Co].[Co] | > 200 | 7.76 µM | – |
| O=C1Sc2ccccc2C(=O)N2CSCC12 (stereo not drawn) | – | > 200 µM | inactive |
| Cn1c(=O)c(C(=O)Nc2nc(C34CC5CC(CC(C5)C3)C4)cs2)c(O)c2ccccc21 | > 100 | > 100 µM | – |
| CCOC(=O)c1c(NC(=S)NCc2ccccc2)sc2c1CCN(C)C2 | > 151 | 95.5 µM | – |
| Cc1cc(S(=O)(=O)n2cc[nH]c2=O)c(S)cc1Cl | > 200 | > 200 µM | – |
| CS(=O)(=O)c1ccc(/C=C2/C=Cc3ccccc32)cc1 | > 25.7 | > 25.7 µM | – |
| CC(=O)Nc1ccc2cc(C)c(=O)[nH]c2n1 | > 200 | > 200 µM | – |
| CCOC(=O)c1sc2c(C(=O)OCC)c3ccccn3c2c1C | – | – | inactive |
| CC1(C)COC(c2ccccc2Br)=N1 | > 200 | > 200 µM | – |

| SMILES | EC50 [µM] | IC50 | outcome |
| --- | --- | --- | --- |
| c1ccc(CN2COc3c(ccc4c5c(ccc34)CN(Cc3ccccc3)CO5)C2)cc1 | > 2.45 | > 2.45 µM | – |
| C=C1C(=O)OC2CC(C)C3(O)C=C(C(C)=O)C4(OC3CC12)C(=O)OC1CC(C)C2(/C=C\C(C)=O)OC2CC14 (stereo not drawn) | > 479 | 81.3 µM | – |
| COC1=CC(=O)C2C(C1=O)C(c1ccc(Cl)cc1)[C@@H]2C (stereo partly drawn) | > 170 | 28.2 µM | – |
| CC(C)COC(=O)N1N=NC2C3CC(=O)C(O3)C21 (stereo not drawn) | > 708 | 123 µM | – |
| CC(c1ccccc1O)C1CCCCC1N=O (stereo not drawn) | – | – | inactive |
| O=C1NC(=O)C(=Cc2ccc([N+](=O)[O-])cc2)C(=O)N1 | > 138 | > 138 µM | – |
| O=C1C(=O)c2ccccc2C(O)=C1CCCC1CCC2CCCCC2C1 (stereo not drawn) | > 200 | 8.32 µM | – |
| O=C(O)CCCCCCCCCCCF | > 200 | 186 µM | – |
| C#CCCCCCCCCC/C=C1\C[C@H](O)COC1=O | > 245 | 46.8 µM | – |
| CN1c2ccccc2C(=O)N2C(=O)CCC21C (stereo not drawn) | > 200 | > 200 µM | – |
| Cn1nc(/C=C/c2ccccc2)nc2c(=O)n(C)c(=O)nc1-2 | > 200 | 0.631 µM | – |
| Oc1ccccc1C=NCCN=Cc1ccccc1O.[CH3][Sn]([CH3])([Cl])[Cl] | – | – | inactive |
| COc1cc2c(c(O)c1OC)C(=O)C1CCC(=O)N1C2c1cccc2ccccc12 (stereo not drawn) | > 200 | 31.6 µM | – |
| COc1cc(/C=C2\Cc3ccccc3C2=O)cc(OC)c1OC | > 23.4 | > 23.4 µM | – |
| C/C(=N\NC(=S)N1CCN(c2ccccn2)CC1)c1cccc2cccnc12 | > 45.7 | 0.0417 µM | – |
| CC(=O)OC12c3ccccc3C(c3ccccc31)C1C(=O)N(Nc3ccccc3)C(=O)C12 (stereo not drawn) | > 200 | > 200 µM | – |
| c1ccc(C2NC(c3ccccc3)N3C(c4ccccc4)N23)cc1 (stereo not drawn) | > 16.6 | > 16.6 µM | – |
| O=C1c2cc(O)cc(O)c2C(=O)c2c(O)cc(CO)cc21 | – | – | inactive |
| C/C(COc1ccccc1)=N\NC(N)=S | – | – | inactive |
| CC1=C(/C=C/C(C)=C/C=C(C(=O)O)\C(C)=C\C(=O)O)C(C)(C)CCC1 | > 200 | > 200 µM | – |
| Cc1cc(=O)c2c(=O)oc3c4ccccc4ccc3c2o1 | > 200 | 105 µM | – |
| CCSSC12CCCN1C(=O)C(C)N(C)C2=O (stereo not drawn) | > 200 | 20.4 µM | – |
| ON=C1CCCCC(=NO)CCCC1 | > 200 | > 200 µM | – |

| SMILES | EC50 [µM] | IC50 | outcome |
| --- | --- | --- | --- |
| Cn1c(N)nc(-c2ccc(Cl)cc2)c1SSc1c(-c2ccc(Cl)cc2)nc(N)n1C | > 200 | > 200 µM | – |
| CCOC(=O)C1=C(O)c2c(OC)ccc(OC)c2C(=O)C1=O | > 427 | > 427 µM | – |
| COC1OC(COC(=O)NCCCCC(=O)C(F)(F)C(F)(F)C(F)(F)C(F)(F)C(F)(F)C(F)(F)C(F)(F)F)C(O)C(O)C1O (stereo not drawn) | > 200 | 2.95 µM and 6.03 µM | – |
| CC1OC(n2ncc(=O)[nH]c2=O)C=CC1=O (stereo not drawn) | > 1120 | 10 µM and 6.92 µM | – |
| O=S(=O)(NCCSSCCNS(=O)(=O)c1ccc(Cl)cc1)c1ccc(Cl)cc1 | > 200 | 17.8 µM | – |
| CCOCN1COCN(C)C1=O | > 1450 | > 1450 µM | – |
| CCC(C(=O)C(=O)OC)P1(=O)OC(C)(C)CN1C(C)(C)C (stereo not drawn) | > 200 | > 200 µM | – |
| COc1ccc(N=NC(=O)NC(CC(C)C)C(N)=O)cc1 (stereo not drawn) | > 200 | 3.39 µM | – |
| CCCNC(=O)Cn1c(-c2ccccc2)cc2ccccc21 | > 200 | > 200 µM | – |
| NC(=O)Nc1ccc(S(=O)(=O)c2ccc(N)cc2)cc1 | > 200 | > 200 µM | – |
| COC(=O)[C@H](C)N1C(=O)N[C@@H](C(C)C)C1=O | 0.617 | > 200 µM | – |
| O=C1c2ccccc2C(=O)N1N1C(=O)c2ccccc2C1=O | > 200 | > 200 µM | – |
| O=C1OCC23CCC4C1C42CC1(CC3)OCCO1 (stereo not drawn) | > 200 | > 200 µM | – |
| CO[C@]12[C@@H](COC(=O)NCCO)C3=C(C(=O)C(C)=C(N)C3=O)N1C[C@@H]1[C@H]2N1C (stereo partly drawn) | > 200 | 52.5 µM | – |
| O=S(=O)(Nc1nc2ccccc2nc1Nc1ccc2ccccc2c1)c1ccccc1 | > 200 | 10.5 µM | – |
| NC(N)=Nc1nn[nH]n1 | > 200 | > 200 µM | – |
| O=C1C2C=CC1C1C(=O)OC(=O)C21 (stereo not drawn) | – | – | inactive |
| CC1=CC(O)(c2ccc(-c3ccccc3Cl)cc2)OC1=O (stereo not drawn) | – | – | inactive |
| CC12CC3C(CC1SCC(=O)O2)C3(C)C (stereo not drawn) | > 302 | > 302 µM | – |
| N.N.N.N.O=[N+]([O-])[O-].[Co+3].[N-]=[N+]=[N-].[N-]=[N+]=[N-] | – | – | inactive |
| Cn1c(=O)c(Cc2c(O)c3ccccc3n(C)c2=O)c(O)c2ccccc21 | > 7.24 | > 7.24 µM | – |
| CCN(CC)/[N+]([O-])=N/OS(=O)(=O)N(C)C | > 200 | > 200 µM | – |

Source: PubChem BioAssay AID179 (DTP/NCI, 2004)
